Assay results published in patent publication US20200000775A1, “ATTENUATION OF NEUROPATHIC PAIN AFTER SPINAL CORD INJURY” (University of Kentucky Research Foundation, priority 2018, published 2020).

Columns and labels:
[1] = cited from earlier work
[2] = rats, pigs, sheep, dogs or humans; cited from earlier work
acetylated α-tubulin = assay: Immunofluorescence of acetylated α-tubulin in spinal dorsal horn after excitotoxic SCI; format: in vivo, rat; details: IP for 7 days from 3 h post-QUIS; lesion site, 28 days after injury; vs vehicle, p<0.001
Description: (§1) Twenty-four male SD rats were randomly assigned to three groups: (A) FluBZ treatment plus intraspinal injection of QUIS (n=10); (B) vehicle treatment plus intraspinal injection of QUIS (n=10); and (C) Sham operation (intraspinal injection of saline, n=4). Assessment of excessive grooming behavior was used to evaluate the effects of FluBZ or vehicle on the development of the spontaneous pain behavior following excitotoxic SCI. The survival time of animals consisted of a period of 4 weeks or until tissue damage progressed beyond the superficial layers of skin, at which time (<4 weeks) animals were euthanized. FluBZ (10 mg/kg/day) or vehicle was intraperitoneally injected once daily for a period of 7 days post-injection of QUIS. The FluBZ or vehicle treatment began at 3 h post-QUIS injection. FluBZ (Sigma) was dissolved in 0.9% saline plus 0.01% Tween 80 (Vehicle). […]
(§2) The stereological analysis of image data within dorsal horn of spinal cord in sham or QUIS-injured animals with treatment of FluBZ or vehicle will be performed using NIS-Elements AR program. Serial double-labeled immunofluorescent signal images of spinal cord sections at lesion epicenter and 2 mm rostral and caudal to the lesion site were analyzed using methods of Binary Layers and Automated Measurement Results. […]

endosomal EEA1-pERK1/2 = assay: Immunofluorescence of endosomal EEA1-pERK1/2 dual signal in spinal dorsal horn after excitotoxic SCI; format: in vivo, rat; details: IP treatment, 28 days post-injury; vs vehicle, p<0.001
Description: as §1, §2

mitochondrial cyclin B1 = assay: Immunofluorescence of mitochondrial cyclin B1 (cyclin B1/VDAC1 dual signal) in spinal dorsal horn after excitotoxic SCI; format: in vivo, rat; details: 10 mg/kg/day for 7 days post-injury; 28 days following injury; vs vehicle, p<0.001
Description: as §1, §2

[3] = test system: rat excitotoxic SCI pain model; assay: Spontaneous pain-related excessive grooming behavior after excitotoxic SCI (intraspinal QUIS); format: in vivo
Description: Male Sprague-Dawley (SD) adult rats at 3 months, weighing 220-250 g, were used (Charles River, Indianapolis, Ind.). Rats were kept under standard housing conditions (12:12 light and dark cycle) with food and water ad libitum for at least 1 week following arrival in an enclosed, pathogen-free animal facility. All experimental procedures were approved and carried out in accordance with the Guidelines of the US National Institutes of Health and Institutional Animal Care and Use Committee (IACUC) of the University of Kentucky.
Excitotoxic SCI was produced by intraspinal injection of the glutamatergic AMPA/metabotropic receptor agonist quisqualic acid (QUIS) as previously described. Briefly, rats were anesthetized with a mixture of ketamine and xylazine (intraperitoneally, IP). Animals were placed in a stereotaxic unit and the spinal column immobilized with a vertebral clamp. One injection window for intraspinal injection was made by laminectomy between spinal segments T12-L1. Injections of 125 mM QUIS was made unilaterally at three levels of the cord by convection enhanced delivery. Injections, spaced 0.3 mm apart, were made at a depth of 1000 μm below the surface in segments T12-L1 between the dorsal root entry zone and the dorsal vein. These coordinates place injections in the center of the gray matter between spinal laminae IV-VI. The total volume of QUIS injected was 1.2 μl (0.4 μl each site, delivered over 4 minutes). Following injections, muscles were sutured over the laminectomy site, and the skin closed with wound clips.
as §1, with “euthanized.” for “euthanized. FluBZ (10 mg/kg/day) or vehicle was intraperitoneally injected once daily for a period of 7 days post-injection of QUIS. The FluBZ or vehicle treatment began at 3 h post-QUIS injection. FluBZ (Sigma) was dissolved in 0.9% saline plus 0.01% Tween 80 (Vehicle).”
Assessment of the spontaneous pain-related excessive grooming behavior was performed as described in previous studies. […] Quantitative analysis of spontaneous excessive grooming pain behavior consisted of the incidence, onset time, mean area of skin damage, and severity of overgrooming pain behaviors for all animals as previously described.
Data related to the onset time, area of grooming-induced skin damage, and immunofluorescent number of object and mean intensity are expressed as mean ±standard error of mean (SEM) and analyzed by using a commercially available computer program (StatView; SAS Institute, Inc, Cary, N.C.). […]

endosomal EEA1-NR1 = assay: Immunofluorescence of endosomal EEA1-NMDAR1 (NR1) dual signal in spinal dorsal horn after excitotoxic SCI; format: in vivo, rat; details: post-treatment, 28 days post-excitotoxic injury; vs vehicle, p<0.001
Description: as §1, §2

[4] = test system: α-tubulin N-acetyltransferase ATAT1/MEC-17; assay: Immunofluorescence of α-tubulin acetyltransferase MEC-17 in spinal dorsal horn after excitotoxic SCI; format: in vivo, rat; details: IP for 7 days from 3 h post-QUIS; lesion site, 28 days after injury; vs vehicle, p<0.01
Description: as §1, §2

Row | Structure (SMILES) | solubility in aqueous systems [1] | bioavailability after oral treatment [2] | α-tubulin acetylation in the spinal dorsal horn (acetylated α-tubulin) | endosomal EEA1-pERK1/2 fluorescent binary number object, binary area fraction, binary area, and mean intensity in the dorsal horn (endosomal EEA1-pERK1/2) | mitochondrial cyclin b1 activity in the dorsal horn (mitochondrial cyclin B1) | incidence of pain behavior ([3]; 10 mg/kg/day IP for 7 days, starting 3 h post-injury, vehicle-treated control 75%) [%] | onset of excessive grooming pain behaviors ([3]; 10 mg/kg/day IP once daily for 7 days, starting 3 h post-QUIS, vehicle average onset 11 days, n=10) | size of the grooming area (skin damage) ([3]; 10 mg/kg/day for one week post-excitotoxic injury, vs vehicle, p<0.001) | severity of grooming class ([3]; 10 mg/kg/day for one week post-excitotoxic injury, vs vehicle, p<0.01) | endosomal EEA1-NR1 fluorescent signals in the dorsal horn (endosomal EEA1-NR1) | expression of acetyltransferase MEC-17 in the spinal dorsal horn [4]
1 | COC(=O)Nc1nc2ccc(Sc3ccccc3)cc2[nH]1 [FBZ, fenbendazole] | poorly soluble | very low |  |  |  |  |  |  |  |  | 
2 | COC(=O)Nc1nc2cc(C(=O)c3ccc(F)cc3)ccc2[nH]1 [FluBZ, Flubendazole] | poorly soluble | very low | significantly decreased | significantly inhibited | significantly reduced | 40 | 19 days after excitotoxic injury | significant reduction | significant reduction | significantly suppressed | significantly decreased
